Assay results published in PubChem BioAssay AID328 (DTP/NCI, 2004).
“And” between values parts separate entries of the source, which are not always exact repeats. Identical values can stand only once. Inconclusive results and toxic doses are left out. The calls were made as follows: active = survival T/C of 150% or more; inactive = T/C below 125% in these data.

System: BDF1 mice, P388 leukemia ip, median survival T/C
Assay: NCI In Vivo Anticancer Drug Screen. Data for tumor model P388 Leukemia (intraperitoneal) in B6D2F1 (BDF1) mice
Conditions: endpoint: median survival time, higher = longer survival
In short: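 In tumour-bearing mice, survival after compound treatment is set against the vehicle group and given as a quotient.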

Measured: T/C

CC(C)[C@](O)(C(=O)OCC1=CC[N+]2([O-])CC[C@@H](O)[C@@H]12)[C@H](C)O (stereo partly drawn)
inactive: dose: 6.2 mg/kg/injection, schedule: Q01DX009 (ip), vehicle: water 113 % of control | dose: 8.0 mg/kg/injection, schedule: Q03HX024 (ip), vehicle: water 100 % of control | dose: 16.0 mg/kg/injection, schedule: Q03HX008 (ip), vehicle: saline 100 % of control | dose: 16.0 mg/kg/injection, schedule: Q03HX008 (ip), vehicle: water 95 % of control | dose: 16.0 mg/kg/injection, schedule: Q03HX016 (ip), vehicle: saline 90 % of control | dose: 16.0 mg/kg/injection, schedule: Q03HX016 (ip), vehicle: water 100 % of control | dose: 16.0 mg/kg/injection, schedule: Q03HX024 (ip), vehicle: saline 90 % of control | dose: 16.0 mg/kg/injection, schedule: Q03HX024 (ip), vehicle: water 90 % of control | dose: 25.0 mg/kg/injection, schedule: Q01DX009 (ip), vehicle: saline 110 % of control | dose: 25.0 mg/kg/injection, schedule: Q01DX009 (ip), vehicle: water 118 % of control | dose: 32.0 mg/kg/injection, schedule: Q03HX008 (ip), vehicle: saline 105 % of control | dose: 32.0 mg/kg/injection, schedule: Q03HX008 (ip), vehicle: water 100 % of control | dose: 32.0 mg/kg/injection, schedule: Q03HX016 (ip), vehicle: saline 100 % of control | dose: 32.0 mg/kg/injection, schedule: Q03HX016 (ip), vehicle: water 100 % of control | dose: 32.0 mg/kg/injection, schedule: Q03HX024 (ip), vehicle: saline 100 % of control | dose: 32.0 mg/kg/injection, schedule: Q03HX024 (ip), vehicle: water 100 % of control | dose: 64.0 mg/kg/injection, schedule: Q01DX009 (ip), vehicle: saline 105 % of control | dose: 64.0 mg/kg/injection, schedule: Q03HX008 (ip), vehicle: saline 100 % of control | dose: 64.0 mg/kg/injection, schedule: Q03HX008 (ip), vehicle: water 100 % of control | dose: 64.0 mg/kg/injection, schedule: Q03HX016 (ip), vehicle: saline 105 % of control | dose: 64.0 mg/kg/injection, schedule: Q03HX016 (ip), vehicle: water 100 % of control | dose: 64.0 mg/kg/injection, schedule: Q03HX024 (ip), vehicle: saline 105 % of control | dose: 64.0 mg/kg/injection, schedule: Q03HX024 (ip), vehicle: water 95 % of control | dose: 64.0 mg/kg/injection, schedule: Q04DX003 (ip), vehicle: water 100 % of control | dose: 100.0 mg/kg/injection, schedule: Q04DX002 (ip), vehicle: saline 108 % of control | dose: 128.0 mg/kg/injection, schedule: Q01DX001 (ip), vehicle: saline 95 % of control | dose: 128.0 mg/kg/injection, schedule: Q01DX009 (ip), vehicle: saline 89 % of control | dose: 128.0 mg/kg/injection, schedule: Q01DX009 (sc), vehicle: water 95 % of control | dose: 128.0 mg/kg/injection, schedule: Q03HX008 (ip), vehicle: saline 95 % of control | dose: 128.0 mg/kg/injection, schedule: Q03HX016 (ip), vehicle: saline 100 % of control | dose: 128.0 mg/kg/injection, schedule: Q03HX016 (ip), vehicle: water 100 % of control | dose: 128.0 mg/kg/injection, schedule: Q03HX024 (ip), vehicle: saline 105 % of control | dose: 128.0 mg/kg/injection, schedule: Q03HX024 (ip), vehicle: water 100 % of control | dose: 128.0 mg/kg/injection, schedule: Q04DX003 (ip), vehicle: saline 95 % of control | dose: 128.0 mg/kg/injection, schedule: Q04DX003 (ip), vehicle: water 100 % of control | dose: 128.0 mg/kg/injection, schedule: Q08DX002 (ip), vehicle: saline 90 % of control | dose: 200.0 mg/kg/injection, schedule: Q01DX001 (ip), vehicle: saline 95 % of control | dose: 200.0 mg/kg/injection, schedule: Q04DX002 (ip), vehicle: saline 100 % of control | dose: 256.0 mg/kg/injection, schedule: Q01DX001 (ip), vehicle: saline 90 % of control | dose: 256.0 mg/kg/injection, schedule: Q01DX001 (ip), vehicle: water 118 % of control | dose: 256.0 mg/kg/injection, schedule: Q01DX009 (ip), vehicle: saline 96 % of control | dose: 256.0 mg/kg/injection, schedule: Q01DX009 (oral), vehicle: water 90 % of control | dose: 256.0 mg/kg/injection, schedule: Q01DX009 (sc), vehicle: water 100 % of control | dose: 256.0 mg/kg/injection, schedule: Q03HX008 (ip), vehicle: saline 120 % of control | dose: 256.0 mg/kg/injection, schedule: Q03HX016 (ip), vehicle: saline 105 % of control | dose: 256.0 mg/kg/injection, schedule: Q03HX024 (ip), vehicle: saline 95 % of control | dose: 256.0 mg/kg/injection, schedule: Q04DX003 (ip), vehicle: saline 100 % of control | dose: 256.0 mg/kg/injection, schedule: Q04DX003 (ip), vehicle: water 104 % of control | dose: 400.0 mg/kg/injection, schedule: Q01DX009 (ip), vehicle: other 105 % of control | dose: 512.0 mg/kg/injection, schedule: Q01DX001 (ip), vehicle: saline 100 % of control | dose: 512.0 mg/kg/injection, schedule: Q01DX001 (ip), vehicle: water 118 % of control | dose: 512.0 mg/kg/injection, schedule: Q01DX009 (ip), vehicle: saline 100 % of control | dose: 512.0 mg/kg/injection, schedule: Q01DX009 (oral), vehicle: water 95 % of control | dose: 512.0 mg/kg/injection, schedule: Q01DX009 (sc), vehicle: water 90 % of control | dose: 512.0 mg/kg/injection, schedule: Q04DX003 (ip), vehicle: saline 90 % of control | dose: 512.0 mg/kg/injection, schedule: Q04DX003 (ip), vehicle: water 100 % of control | dose: 750.0 mg/kg/injection, schedule: Q01DX005 (ip), vehicle: water 100 % of control | dose: 800.0 mg/kg/injection, schedule: Q01DX001 (ip), vehicle: saline 108 % of control | dose: 800.0 mg/kg/injection, schedule: Q01DX009 (ip), vehicle: other 99 % of control | dose: 1024.0 mg/kg/injection, schedule: Q01DX001 (ip), vehicle: saline 100 % of control | dose: 1024.0 mg/kg/injection, schedule: Q01DX001 (ip), vehicle: water 95 % of control | dose: 1024.0 mg/kg/injection, schedule: Q01DX009 (oral), vehicle: water 90 % of control | dose: 1024.0 mg/kg/injection, schedule: Q01DX009 (sc), vehicle: water 90 % of control | dose: 1024.0 mg/kg/injection, schedule: Q04DX003 (ip), vehicle: saline 110 % of control | dose: 1024.0 mg/kg/injection, schedule: Q04DX003 (ip), vehicle: water 100 % of control | dose: 1024.0 mg/kg/injection, schedule: Q08DX002 (ip), vehicle: saline 100 % of control | dose: 1024.0 mg/kg/injection, schedule: Q08DX002 (ip), vehicle: water 95 % of control | dose: 2048.0 mg/kg/injection, schedule: Q01DX001 (ip), vehicle: saline 120 % of control | dose: 2048.0 mg/kg/injection, schedule: Q01DX001 (ip), vehicle: water 113 % of control | dose: 2048.0 mg/kg/injection, schedule: Q01DX009 (oral), vehicle: water 90 % of control | dose: 2048.0 mg/kg/injection, schedule: Q08DX002 (ip), vehicle: saline 105 % of control | dose: 2048.0 mg/kg/injection, schedule: Q08DX002 (ip), vehicle: water 118 % of control
active: dose: 200.0 mg/kg/injection, schedule: Q01DX009 (ip), vehicle: other 157 % of control | dose: 250.0 mg/kg/injection, schedule: Q04DX003 (ip), vehicle: water 154 % of control | dose: 256.0 mg/kg/injection, schedule: Q01DX009 (ip), vehicle: water 154 % of control | dose: 288.0 mg/kg/injection, schedule: Q01DX009 (ip), vehicle: water 159 % of control | dose: 360.0 mg/kg/injection, schedule: Q01DX009 (ip), vehicle: water 175 % of control | dose: 500.0 mg/kg/injection, schedule: Q01DX001 (ip), vehicle: water 154 % of control | dose: 500.0 mg/kg/injection, schedule: Q04DX003 (ip), vehicle: water 172 % of control | dose: 500.0 mg/kg/injection, schedule: Q08DX002 (ip), vehicle: water 163 % of control | dose: 512.0 mg/kg/injection, schedule: Q01DX009 (ip), vehicle: water 172 % of control | dose: 600.0 mg/kg/injection, schedule: Q01DX009 (ip), vehicle: water 163 % of control and 169 % of control | dose: 1000.0 mg/kg/injection, schedule: Q01DX001 (ip), vehicle: water 154 % of control | dose: 1000.0 mg/kg/injection, schedule: Q04DX003 (ip), vehicle: water 195 % of control | dose: 1000.0 mg/kg/injection, schedule: Q08DX002 (ip), vehicle: water 177 % of control | dose: 1024.0 mg/kg/injection, schedule: Q01DX009 (ip), vehicle: saline 160 % of control | dose: 1500.0 mg/kg/injection, schedule: Q01DX001 (ip), vehicle: water 163 % of control | dose: 1500.0 mg/kg/injection, schedule: Q08DX002 (ip), vehicle: water 181 % of control
